Measurements reported in patent US12121525B2, “Methods for treating GI syndrome and graft versus host disease” (Sloan Kettering Institute for Cancer Research, priority 2007, dated 2024).

How the values were obtained:
ASMase = target: T1, ASMase (Homo sapiens, UniProt P17405); experiment: ASMase activity assay in Jurkat cells stimulated with UV-C or anti-Fas; format: cell-based
T1 construct: Jurkat cells were lysed in PBS containing 0.2% Triton X-100; endogenous in cells; host or cells: Jurkat T lymphocytes (clone E6-1, ATCC)
T1 sequence (P17405 47-631): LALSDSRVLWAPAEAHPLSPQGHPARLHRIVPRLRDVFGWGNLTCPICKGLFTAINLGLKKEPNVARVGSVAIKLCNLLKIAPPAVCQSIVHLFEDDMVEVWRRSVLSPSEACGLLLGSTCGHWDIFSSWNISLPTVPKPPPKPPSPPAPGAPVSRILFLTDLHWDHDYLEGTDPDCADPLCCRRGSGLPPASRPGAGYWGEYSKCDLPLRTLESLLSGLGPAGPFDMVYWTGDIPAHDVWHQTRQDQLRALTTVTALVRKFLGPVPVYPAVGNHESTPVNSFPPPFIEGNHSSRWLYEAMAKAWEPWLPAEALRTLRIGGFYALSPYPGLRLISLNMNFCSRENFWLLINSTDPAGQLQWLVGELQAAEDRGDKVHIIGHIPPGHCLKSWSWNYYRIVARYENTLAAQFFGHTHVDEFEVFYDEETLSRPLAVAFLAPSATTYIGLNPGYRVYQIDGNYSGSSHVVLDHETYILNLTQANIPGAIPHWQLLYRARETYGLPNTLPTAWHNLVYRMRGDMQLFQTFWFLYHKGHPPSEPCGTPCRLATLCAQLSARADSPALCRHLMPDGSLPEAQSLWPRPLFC
Description: Others have shown that ceramide is required for Fas-induced apoptosis in some cell types. We looked at the requirement for UV-C-induced ceramide generation in initiating the apoptotic response. By UV-C is meant ultraviolet radiation in the 100-280 nm wavelength range. In these studies imipramine was used to inhibit ASMase-activity. Pre-treatment of Jurkat cells with […] imipramine for 30 min decreased baseline ASMase activity, abrogated UV-C and Fas-induced ASMase activation at 1 min post stimulation and ceramide generation at 2 minutes, and attenuated apoptosis at 4 hours post-stimulation. […] Grassme et al., J Biol Chem. 2001, 276:20589, incorporated herein by reference. […]
ASMase activity was measured using a fluorescence-based, high-performance liquid chromatographic (HPLC) assay^98. […] ASMase activity was measured by incubating an equal volume of lysate in assay buffer [500 μM BODIPY-C12 sphingomyelin (Molecular Probes, Eugene OR), 0.1 mM ZnCl2, 0.1 M sodium acetate pH 5.0 and 0.6% Triton X-100] for 60 min at 37° C. […] Fluorescence was quantified using a Waters 474 (Waters Corp.) fluorescence detector set to excitation and emission wavelengths of 505 and 540 nm, respectively. The amount of product generated was calculated using a regression equation derived from a standard curve established for known amounts of BODIPY-C12 ceramide standard. […]

Jurkat cells [1] = experiment: UV-C- and anti-Fas-induced apoptosis in Jurkat cells; format: cell-based, human; settings: 50 mM imipramine 30 min; 4 hours post UV-C or Fas stimulation
Description: (§1) Others have shown that ceramide is required for Fas-induced apoptosis in some cell types. We looked at the requirement for UV-C-induced ceramide generation in initiating the apoptotic response. By UV-C is meant ultraviolet radiation in the 100-280 nm wavelength range. In these studies imipramine was used to inhibit ASMase-activity. Pre-treatment of Jurkat cells with […] imipramine for 30 min decreased baseline ASMase activity, abrogated UV-C and Fas-induced ASMase activation at 1 min post stimulation and ceramide generation at 2 minutes, and attenuated apoptosis at 4 hours post-stimulation. […] Grassme et al., J Biol Chem. 2001, 276:20589, incorporated herein by reference.
H. Grassme, H. Schwarz, and E. Gulbins, Biochem Biophys Res Commun 284 (4), 1016 (2001), incorporated herein by reference. […] Importantly, we also observed that anti-ceramide and nystatin pretreatment yielded an approximate 1 log increase in clonogenic cell survival compared to vehicle controls after 5-50 J/m^2 UV-C or anti-Fas stimulation. […]
Apoptosis was assessed in vitro by two different techniques. […] Morphologic changes of nuclear apoptosis including chromatin condensation, segmentation and compaction along the periphery of the nucleus or the appearance of apoptotic bodies were quantified using an Axiovert S-100 Zeiss fluorescence microscope as previously described ^33. […]

Jurkat cells [2] = experiment: Ceramide generation in Jurkat cells (diacylglycerol kinase assay); format: cell-based, human; settings: 50 mM imipramine 30 min; 2 minutes post UV-C or Fas stimulation
Description: as §1
Jurkat cells, stimulated with UV-C or CH-11, were incubated for the indicated times at 37° C. Stimulation was terminated by the addition of 2 ml of chloroform:methanol:HCl (100:100:1,v/v/v), and ceramide was quantified by the diacyglycerol kinase assay, as described^97.

UV-C and Fas-induced ASMase activation (ASMase; 50 mM imipramine 30 min, 1 min post stimulation): abrogated
baseline ASMase activity (ASMase; pre-treatment with 50 mM imipramine for 30 min): decreased
Structure (SMILES): CN(C)CCCN1c2ccccc2CCc2ccccc21 [imipramine]
apoptosis (Jurkat cells [1]): attenuated
ceramide generation (Jurkat cells [2]): abrogated
